According to patent US20090203797A1, “Antimycotic Patch” (priority 2007, published 2009):
Structures can show the parent of a compound that is named as a salt.

Key:
[1] = from the interview form provided with 125 mg Lamisil Tablets; cited from earlier work
[2] = octanol/water partition coefficient logKo/w; assay type: physicochemical; conditions: 32° C., HPLC of each layer
Procedure: In the present invention, logKo/w is determined in the following manner. First, a drug is dissolved in a suitable amount of octanol (or water) at 32° C. followed by the further addition of an equal amount of water (or octanol) and mixing well. After the mixture divides into two layers, the concentration of drug in each layer is measured by HPLC and logKo/w is determined using the equation below. LogKo/w=log(drug concentration in octanol phase/drug concentration in aqueous phase)

| logP [2] | SMILES | logKo/w value [1] |
| --- | --- | --- |
| – | CN(C/C=C/C#CC(C)(C)C)Cc1cccc2ccccc12 [terbinafine hydrochloride] | 0.87 |
| 5.8 | CN(C/C=C/C#CC(C)(C)C)Cc1cccc2ccccc12 [terbinafine-base] | – |
